{"source": "patent US9109041B2", "about": "“Analog compounds of analgesic peptides derived from the venom of crotalus durissus terrificus snakes, their uses, compositions, methods of preparation and purification” (priority 2004, dated 2015)", "key": {"[1]": {"test_system": "spontaneous pain induced by the Walker 256 tumor", "assay": "spontaneous pain induced by the Walker 256 tumor (lifting, licking)", "format": "in vivo, rat", "conditions": "6 μg/kg p.o.", "source_text": "(§1) The Walker 256 tumor cells were kindly provided by Prof. Dr. Rui Curi, of the Physiology and Biophysics Department of the Biomedical Science Institute of the University of São Paulo. The tumor-bearing animal was sacrificed and the tumoral tissue was removed, placed on a Petri dish containing 0.9% saline. Then, the tumor was cut in smaller parts, and transferred into a beaker containing saline. The material was triturated with a fine-cut, until the tumor is totally fragmented. Then, this material was filtered in gauze and the liquid collected in a beaker. All procedures were performed on ice. The material of the beaker was transferred to 50 ml plastic tubes and centrifuged at 4° C., for 10 minutes, at 1200 rpm. After centrifugation, the supernatant was rejected and the precipitate resuspended in saline 0.9%. For cell counts, the suspension of cells was diluted (1:100) in saline. An aliquot (200 μl) was removed and placed in a test tube containing 200 μl of 1% Trypan blue. The cell number was determined in optical microscope using Neubauer's chamber. The cellular viability was determined considering viable the light-refracting cells.\n(§2) After determining the number of cells, 1 ml of the suspension, containing 1×10^7 cells, was injected by intraperitoneal route, on the right side of the rats to obtain liquid tumor (ascites).\n(§3) Five days after injection, the rats with ascites were sacrificed and the ascetic fluid collected from the peritoneal cavity and placed in a test tube containing EDTA. The liquid was diluted 100 times with phosphate-buffered saline (PBS), pH 7.4. The cell count was done after dilution with Trypan blue, as described above. Tumor cell count was ascertained to 1×10^6 cells in 100 μl, by dilution with PBS. This number of cells was determined in preliminary tests for induction of cancer pain in rats. In this final cell number adjustment, the volume of antibiotic (Benzetacil®) added to the suspension (150,000 units of antibiotic/10 ml of suspension), was taken into consideration. The antibiotic was used in order to avoid microbial contamination. The cells were injected by intraplantar route into one of the rat hind paws. Control animals were injected with PBS into the contralateral paw, in the same experimental conditions.\n(§4) Hyperalgesia, allodynia and spontaneous pain were determined before (BM-basal measurement) and 5 days after tumor cell injection, before (IM-initial measurement) and 2 hours after (FM-Final measurement) peptide administration.\n(§5) The results were analyzed comparing the mean values of the basal and initial measurements, or of the initial and final measurements or, when determined, by comparing the mean values obtained in the different experimental groups (Tables 17, 18, 19)."}, "[2]": {"test_system": "hyperalgesia induced by the Walker 256 tumor", "assay": "hyperalgesia induced by the Walker 256 tumor (cancer pain)", "format": "in vivo, rat", "source_text": "as §1, §2, §3, §4, §5\nFor this purpose, the animals were treated with CTOP, a specific μ receptor antagonist (20 μg/paw), nor-BNI, a specific κ receptor antagonist (50 μg/paw) or with ICI 174,864, a specific δ receptor antagonist (10 μg/paw). The antagonists were injected by intraplantar route. The peptide was administered in the dose of 6 μg/kg, orally, immediately before the injection of the opioid antagonists. The results were analyzed comparing the mean values of the basal and initial measurements, or of the initial and final measurements or, when determined, by comparing the mean values obtained in the different experimental groups ( Table 20)."}, "[3]": {"test_system": "prostaglandin E2-induced hyperalgesia", "assay": "rat paw pressure test, prostaglandin E2-induced hyperalgesia", "conditions": "for pain threshold, IM (g) ± S.E.M.: before PGE2"}, "[4]": {"conditions": "5th day after tumor implantation, 2 hours after peptide"}, "[5]": {"conditions": "5th day after tumor implantation, before peptide"}}, "data": [{"substance": "Xaa-Phe-Ser-Pro-Glu-Asn-Cys-Gln-Gly-Glu-Ser-Gln-Pro-Cys [SEQ ID NO: 2]", "values": [{"measurement": "Licking duration, FM", "setting": "[1]; [4]", "value": "1.6 ± 0.81", "unit": "s"}, {"measurement": "Lifting duration, FM", "setting": "[1]; [4]", "value": "25 ± 7.72", "unit": "s"}, {"measurement": "Licking duration, IM", "setting": "[1]; [5]", "value": "15 ± 1.46", "unit": "s"}, {"measurement": "Lifting duration, IM", "setting": "[1]; [5]", "value": "204 ± 30.74", "unit": "s"}, {"measurement": "Licking duration, BM", "setting": "[1]; before injection of the tumor", "value": "0 ± 0.00", "unit": "s"}, {"measurement": "Lifting duration, BM", "setting": "[1]; before injection of the tumor", "value": "0 ± 0.00", "unit": "s"}, {"measurement": "pain threshold, FM", "setting": "[2]; 6 μg/kg p.o. + CTOP 20 μg/paw i.pl., 5th day, 2 hours after peptide", "value": "72 ± 2.81", "unit": "g"}, {"measurement": "pain threshold, IM", "setting": "[2]; 6 μg/kg p.o. + CTOP 20 μg/paw i.pl., 5th day, before peptide", "value": "37 ± 2.81", "unit": "g"}, {"measurement": "pain threshold, BM", "setting": "[2]; 6 μg/kg p.o. + CTOP 20 μg/paw i.pl., before injection of the tumor", "value": "70 ± 1.29", "unit": "g"}, {"measurement": "pain threshold, FM", "setting": "[2]; 6 μg/kg p.o. + ICI 174,864 10 μg/paw i.pl., 5th day, 2 hours after peptide", "value": "52 ± 1.22", "unit": "g"}, {"measurement": "pain threshold, IM", "setting": "[2]; 6 μg/kg p.o. + ICI 174,864 10 μg/paw i.pl., 5th day, before peptide", "value": "33 ± 3.39", "unit": "g"}, {"measurement": "pain threshold, BM", "setting": "[2]; 6 μg/kg p.o. + ICI 174,864 10 μg/paw i.pl., before injection of the tumor", "value": "67 ± 1.22", "unit": "g"}, {"measurement": "pain threshold, FM", "setting": "[2]; 6 μg/kg p.o. + nor-BNI 50 μg/paw i.pl., 5th day, 2 hours after peptide", "value": "32 ± 1.05", "unit": "g"}, {"measurement": "pain threshold, IM", "setting": "[2]; 6 μg/kg p.o. + nor-BNI 50 μg/paw i.pl., 5th day, before peptide", "value": "32 ± 2.14", "unit": "g"}, {"measurement": "pain threshold, BM", "setting": "[2]; 6 μg/kg p.o. + nor-BNI 50 μg/paw i.pl., before injection of the tumor", "value": "69 ± 1.53", "unit": "g"}, {"measurement": "pain threshold, FM", "setting": "[2]; 6 μg/kg p.o., 5th day after tumor implantation, 2 hours after peptide (Table 17)", "value": "76 ± 2.29", "unit": "g"}, {"measurement": "pain threshold, IM", "setting": "[2]; 6 μg/kg p.o., 5th day after tumor implantation, before peptide (Table 17)", "value": "27 ± 1.01", "unit": "g"}, {"measurement": "pain threshold, FM", "setting": "[2]; 6 μg/kg p.o., 5th day, 2 hours after peptide (Table 20)", "value": "75 ± 2.88", "unit": "g"}, {"measurement": "pain threshold, IM", "setting": "[2]; 6 μg/kg p.o., 5th day, before peptide (Table 20)", "value": "36 ± 2.39", "unit": "g"}, {"measurement": "pain threshold, BM", "setting": "[2]; 6 μg/kg p.o., before injection of the tumor (Table 17)", "value": "69 ± 1.30", "unit": "g"}, {"measurement": "pain threshold, BM", "setting": "[2]; 6 μg/kg p.o., before injection of the tumor (Table 20)", "value": "71 ± 1.25", "unit": "g"}, {"measurement": "effect of the mu opioid receptor antagonist on the anti-hyperalgesic effect of the peptide", "setting": "[2]; peptide 6 μg/kg p.o., CTOP 20 μg/paw i.pl.", "value": "did not alter"}, {"measurement": "effect of the delta opioid receptor antagonist on the anti-hyperalgesic effect of the peptide", "setting": "[2]; peptide 6 μg/kg p.o., ICI 174,864 10 μg/paw i.pl.", "value": "partially inhibited"}, {"measurement": "effect of the kappa opioid receptor antagonist on the anti-hyperalgesic effect of the peptide", "setting": "[2]; peptide 6 μg/kg p.o., nor-BNI 50 μg/paw i.pl.", "value": "blocked"}, {"measurement": "pain threshold, FM (g) ± S.E.M", "setting": "[3]; 0.00000256 μg/paw i.pl., 3 h after PGE2 100 ng/paw i.pl.", "value": "57 ± 5.34", "unit": "g"}, {"measurement": "pain threshold, IM (g) ± S.E.M.", "setting": "[3]; 0.00000256 μg/paw i.pl.", "value": "72 ± 1.12", "unit": "g"}, {"measurement": "pain threshold, FM (g) ± S.E.M", "setting": "[3]; 0.0000128 μg/kg i.v., 3 h after PGE2 100 ng/paw i.pl.", "value": "54 ± 3.04", "unit": "g"}, {"measurement": "pain threshold, IM (g) ± S.E.M.", "setting": "[3]; 0.0000128 μg/kg i.v.", "value": "70 ± 2.05", "unit": "g"}, {"measurement": "pain threshold, FM (g) ± S.E.M", "setting": "[3]; 0.0000128 μg/paw i.pl., 3 h after PGE2 100 ng/paw i.pl.", "value": "62 ± 3.22", "unit": "g"}, {"measurement": "pain threshold, IM (g) ± S.E.M.", "setting": "[3]; 0.0000128 μg/paw i.pl.", "value": "71 ± 2.39", "unit": "g"}, {"measurement": "pain threshold, FM (g) ± S.E.M", "setting": "[3]; 0.000064 μg/kg i.v., 3 h after PGE2 100 ng/paw i.pl.", "value": "54 ± 2.39", "unit": "g"}, {"measurement": "pain threshold, IM (g) ± S.E.M.", "setting": "[3]; 0.000064 μg/kg i.v.", "value": "68 ± 1.44", "unit": "g"}, {"measurement": "pain threshold, FM (g) ± S.E.M", "setting": "[3]; 0.00032 μg/kg i.v., 3 h after PGE2 100 ng/paw i.pl.", "value": "63 ± 5.16", "unit": "g"}, {"measurement": "pain threshold, IM (g) ± S.E.M.", "setting": "[3]; 0.00032 μg/kg i.v.", "value": "72 ± 1.84", "unit": "g"}, {"measurement": "pain threshold, FM (g) ± S.E.M", "setting": "[3]; 0.00032 μg/paw i.pl., 3 h after PGE2 100 ng/paw i.pl.", "value": "60 ± 3.25", "unit": "g"}, {"measurement": "pain threshold, IM (g) ± S.E.M.", "setting": "[3]; 0.00032 μg/paw i.pl.", "value": "67 ± 2.35", "unit": "g"}, {"measurement": "pain threshold, FM (g) ± S.E.M", "setting": "[3]; 0.0016 μg/kg i.v., 3 h after PGE2 100 ng/paw i.pl.", "value": "67 ± 2.35", "unit": "g"}, {"measurement": "pain threshold, IM (g) ± S.E.M.", "setting": "[3]; 0.0016 μg/kg i.v.", "value": "74 ± 0.92", "unit": "g"}, {"measurement": "pain threshold, FM (g) ± S.E.M", "setting": "[3]; 0.0016 μg/kg p.o., 3 h after PGE2 100 ng/paw i.pl.", "value": "64 ± 1.00", "unit": "g"}, {"measurement": "pain threshold, IM (g) ± S.E.M.", "setting": "[3]; 0.0016 μg/kg p.o.", "value": "78 ± 1.22", "unit": "g"}, {"measurement": "pain threshold, FM (g) ± S.E.M", "setting": "[3]; 0.0016 μg/paw i.pl., 3 h after PGE2 100 ng/paw i.pl.", "value": "67 ± 1.12", "unit": "g"}, {"measurement": "pain threshold, IM (g) ± S.E.M.", "setting": "[3]; 0.0016 μg/paw i.pl.", "value": "72 ± 1.84", "unit": "g"}, {"measurement": "pain threshold, FM (g) ± S.E.M", "setting": "[3]; 0.008 μg/kg i.v., 3 h after PGE2 100 ng/paw i.pl.", "value": "73 ± 4.74", "unit": "g"}, {"measurement": "pain threshold, IM (g) ± S.E.M.", "setting": "[3]; 0.008 μg/kg i.v.", "value": "69 ± 2.26", "unit": "g"}, {"measurement": "pain threshold, FM (g) ± S.E.M", "setting": "[3]; 0.008 μg/kg p.o., 3 h after PGE2 100 ng/paw i.pl.", "value": "71 ± 2.39", "unit": "g"}, {"measurement": "pain threshold, IM (g) ± S.E.M.", "setting": "[3]; 0.008 μg/kg p.o.", "value": "79 ± 1.25", "unit": "g"}, {"measurement": "pain threshold, FM (g) ± S.E.M", "setting": "[3]; 0.04 μg/kg p.o., 3 h after PGE2 100 ng/paw i.pl.", "value": "75 ± 1.87", "unit": "g"}, {"measurement": "pain threshold, IM (g) ± S.E.M.", "setting": "[3]; 0.04 μg/kg p.o.", "value": "77 ± 1.22", "unit": "g"}, {"measurement": "pain threshold, FM (g) ± S.E.M", "setting": "[3]; 0.2 μg/kg p.o., 3 h after PGE2 100 ng/paw i.pl.", "value": "84 ± 1.87", "unit": "g"}, {"measurement": "pain threshold, IM (g) ± S.E.M.", "setting": "[3]; 0.2 μg/kg p.o.", "value": "77 ± 2.00", "unit": "g"}, {"measurement": "pain threshold, FM (g) ± S.E.M", "setting": "[3]; 1 μg/kg p.o. + CTOP 20 μg/leg i.pl. with PGE2, 3 h after PGE2", "value": "114 ± 1.87", "unit": "g"}, {"measurement": "pain threshold, IM (g) ± S.E.M.", "setting": "[3]; 1 μg/kg p.o. + CTOP 20 μg/leg i.pl.", "value": "77 ± 1.22", "unit": "g"}, {"measurement": "pain threshold, FM (g) ± S.E.M", "setting": "[3]; 1 μg/kg p.o. + ICI174,864 10 μg/paw i.pl. with PGE2, 3 h after PGE2", "value": "114 ± 1.00", "unit": "g"}]}]}
